The assay is filed under the species Rattus norvegicus. The experiment in a line: The compound was tested for inhibition of Sodium-Phosphate co-transport in rat renal Brush border membrane. The format is functional.

Structures are written as SMILES.

Usually Ki stands for a dissociation constant, usually derived from enzyme kinetics or from competition with a known ligand.

`O=P(O)(O)C(F)P(=O)(O)c1ccccc1` (stereo unspecified): the Ki was found to be 360 µM.

Source of the values: ChEMBL document CHEMBL1128314, “Absolute configuration of (+)-[fluoro(hydroxyphenylphosphinyl)methyl]-phosphonic acid, a specific inhibitor of Na(+)-gradient-dependent Na(+)-phosphate cotransport across renal brush border membrane, by X-ray crystallographic analysis of its (-)-quinine salt” (J Med Chem, 1995).
